In patent US8242166B2, “C(10) ethyl ester and C(10) cyclopropyl ester substituted taxanes” (Florida State University Research Foundation, Inc., priority 2008, dated 2012):
Several values for one entry are separate records, joined by “and”; a condition that tells them apart may be missing. Equal values may be shown once. Read-outs that look alike come from different tables or passages of the source.

What was measured:
OVCAR5 = assay: MTT cytotoxicity (IC50), OVCAR5; type: cell-based; conditions: Homo sapiens, OVCAR-5, 72 h, read-out: IN Vitro IC50 (nm) OVCAR5
Experimental: (§1) Compound 17932 was tested in four of these cell lines, while the remaining compounds were tested in all of these cell lines. All cell lines were maintained in RPMI-1640 tissue culture medium (TCM, supplemented with antibiotics and 10% fetal bovine serum) and cultured at 37° C. in humidified air containing 5% CO2. To assess the antiproliferative effects of the test compounds, 172 μL of tumor cell suspension (1.45×10^4 cells/ml) were added to each well of a 96-well plate and incubated for 24 h at 37° C. in 5% CO2 in air to allow cells to adhere. Seven 2-fold drug dilutions in TCM/DMSO were performed in triplicate in separate 96-well plates and 28 μL was transferred to the wells containing tumor cells (200 μL final volume/0.1% DMSO). Plates were incubated for 72 h and cell viability was determined by adding 50 μL of warm TCM containing 5 mg/mL MTT (3-[4,5-dimethylthiazol-2-yl]-2,5-diphenyltetrazolium bromide) to each well and incubating for 1 h at 37° C. Plates were processed and the absorbances of the resulting solutions were measured by a plate reader at 570 nm. […] (GraphPad Prism version 4.00 for Windows). Studies were conducted by Taxolog, Inc., Tallahassee, Fla.

[1] = system: human A375 melanoma xenograft; assay: A375 xenograft study e209 (Example 27); conditions: 30 mg/kg iv q4d × 4; for CR (complete regression) / NTR NTRa/u / NTR NTRm / PR (partial regression) / TFS (tumor-free survivor) / TR (treatment-related death): n=6; for % TGD / Median TTE / T-C: vehicle EL
Experimental: The endpoint was a tumor volume of 2,000 mm^3 and the study was terminated on Day 56. Efficacy was assessed by tumor growth delay and the number of partial and complete regressions. Animals with a CR that persisted through Day 56 were classified as long-term tumor-free survivors (TFS).

[2] = system: human BxPC-3 human pancreatic xenograft; type: in vivo; conditions: for mean doubling time (DT) of tumors / time to reach volume (T to V) of 1,000 mm^3: repeated; for optimal T/C % value: at D53; for T/C % values: from D33; for antitumor activity: repeated IV injections at 5 and 7 mg/kg/inj
Experimental: Method: Twenty four (24) hours after a whole body irradiation with a γ-source (7.0 Gy, Co^60, INRA, Dijon, France) 20×10^6 BxPC-3 cells in 200 μl of RPMI 1640 culture medium were subcutaneously injected in the right flank of 8 female Nude rats to generate tumor material. When the tumor size reaches approximately 1,000 mm^3, the tumors were surgically excised for implantation into recipient Nude female rats. Twenty four (24) hours after a whole body irradiation (7.0 Gy, Co^60, INRA, Dijon, France), fresh BxPC-3 tumor fragments were sc implanted in the right flank of 52 Nude female rats (1 fragment/rat) at D0 using surgical pliers and skin was stitched. The antitumor activity study was started at D21 when the mean tumor volume has reached 321.6±131.2 mm^3. Before the start of treatments, 42 tumor bearing rats out of 52 grafted were randomized into 7 groups of 6 animals.
[…]. At 7 mg/kg/inj, only two treatments were performed at D21 and D42 due to severe body weight loss.

HCT116 = assay: MTT cytotoxicity (IC50), HCT116; type: cell-based; conditions: Homo sapiens, HCT-116, 72 h, read-out: IN Vitro IC50 (nm) HCT116
Experimental: as §1, with “All” for “Compound 17932 was tested in four of these cell lines, while the remaining compounds were tested in all of these cell lines. All”

A549 = assay: MTT cytotoxicity (IC50), A549; type: cell-based; conditions: Homo sapiens, 72 h, read-out: IN Vitro IC50 (nm) A549
Experimental: as §1

HOP-18 = assay: MTT cytotoxicity (IC50), HOP-18; type: cell-based; conditions: Homo sapiens, 72 h, read-out: IN Vitro IC50 (nm) HOP18
Experimental: as §1

[3] = system: human MX-1 breast carcinoma; assay: MX1 xenograft study e219R1, i.v. single dose (Example 17); conditions: for CR (complete regression) / NTR (non-treatment-related death) / PR (partial regression) / TFS (tumor-free survivor) / TR (treatment-related death): n=5; for minimal effective dose: iv qd × 1, lowest dose with statistically significant results and at least one D61 survivor or regression
[4] = system: HT29 human tumor xenografts; assay: HT29 xenograft study e133 (Example 24); type: in vivo, nude mice
Experimental: […]. Control mice received the 5% E 95% L-II vehicle q4d×4. A positive reference group received i.v. therapy with compound 2, at 30 mg/kg once weekly for three weeks (q7d×3), in a vehicle of 7.5% ethanol and 7.5% Tween® 80 in 5% dextrose in water. […] The endpoint volume for tumor growth was 1,000 mm^3. […].

[5] = system: human HT29 colon carcinoma xenografts; conditions: 30 mg/kg i.v. q4d×4; six mice
[6] = 7 mg/kg/inj IV, after the first treatment

## CC(=O)O[C@@]12CO[C@@H]1C[C@H](O)[C@@]1(C)C(=O)[C@H](OC(=O)C3CC3)C3=C(C)[C@@H](OC(=O)[C@H](O)[C@@H](NC(=O)OC4CCC4)c4cccs4)C[C@@](O)([C@@H](OC(=O)c4ccccc4)C12)C3(C)C (stereo partly drawn) [Compound 18365]
OVCAR5
  IC50: 0.3 nM
[1]
  BW Nadir: −9.8% (14)
  MTV(n), Day 56: 0.00 (6) mm^3
  CR (complete regression): 5
  NTR NTRa/u: 0
  NTR NTRm: 0
  PR (partial regression): 0
  TFS (tumor-free survivor): 5
  TR (treatment-related death): 0
  % TGD: 210.08%
  Median TTE: 56 days
  T-C: 37.94 days
[2]; 5 mg/kg
  wt loss: 16.9%
[2]; 5 mg/kg/inj
  tolerability of repeated IV treatments: not well tolerated
[2]; 5 mg/kg/inj IV
  mean doubling time (DT) of tumors: 24.7 ± 10.4 days
  time to reach volume (T to V) of 1,000 mm^3: 64.3 ± 16.3 days
  optimal T/C % value: 11.0%
  T/C % values: lower than 42%
[2]; 5 mg/kg/inj IV, at D33
  body weight loss: −16.9±6.1%
[2]; 5 mg/kg/inj IV, at D81 (final sacrifice), 6 rats per group
  animals with complete tumor regression: two
[2]; 7 mg/kg/inj
  tolerability of repeated IV treatments: not tolerated
[2]; 7 mg/kg/inj IV
  rats out of six alive at the end of the study: one
  optimal T/C % value: 13.2% and 8.9%
  T/C % values: lower than 42%
[2]; [6]
  MBWC D21-D26: −16.5±7.2%
[2]
  antitumor activity: marked antitumor activity
HCT116
  IC50: 0.4 nM
A549
  IC50: 0.5 nM
HOP-18
  IC50: 0.7 nM
[3]; 7.5 mg/kg iv qd × 1
  % TGD: 12.92%
  BW Nadir: −3.8% (4)
  Median TTE: 36.29 days
  T-C: 4.15 days
  activity (statistical significance): non-significant activity
  CR (complete regression): 0
  NTR (non-treatment-related death): 0
  PR (partial regression): 0
  TFS (tumor-free survivor): 0
  TR (treatment-related death): 0
[3]; 15 mg/kg iv qd × 1
  % TGD: 76.26%
  BW Nadir: −6.8% (5)
  MTV (n), Day 60: 1098.50 (1) mm^3
  Median TTE: 56.65 days
  T-C: 24.51 days
  maximum group mean BW loss: 6.8%
  CR (complete regression): 2
  NTR (non-treatment-related death): 0
  PR (partial regression): 1
  TR (treatment-related death): 0
[3]; 30 mg/kg iv qd × 1
  % TGD: 89.79%
  BW Nadir: −16.0% (5)
  MTV (n), Day 60: 0.00 (5) mm^3
  Median TTE: 61 days
  T-C: 28.86 days
  maximum group mean BW loss: 16%
  CR (complete regression): 5
  NTR (non-treatment-related death): 0
  PR (partial regression): 0
  TFS (tumor-free survivor): 5
  TR (treatment-related death): 0
[3]
  minimal effective dose: 15 mg/kg

## CCC(=O)O[C@H]1C(=O)[C@@]2(C)C([C@H](OC(=O)c3ccccc3)[C@]3(O)C[C@H](OC(=O)[C@H](O)[C@@H](NC(=O)OC4CCCC4)c4cccs4)C(C)=C1C3(C)C)[C@]1(OC(C)=O)CO[C@@H]1C[C@@H]2O (stereo partly drawn) [Compound 18926]
OVCAR5
  IC50: 0.2 nM
[1]
  BW Nadir: 13.3% (18)
  MTV(n), Day 56: 0.00 (6) mm^3
  CR (complete regression): 6
  NTR NTRa/u: 0
  NTR NTRm: 0
  PR (partial regression): 0
  TFS (tumor-free survivor): 6
  TR (treatment-related death): 0
  % TGD: 210.08%
  Median TTE: 56 days
  T-C: 37.94 days
HCT116
  IC50: 0.3 nM
A549
  IC50: 0.4 nM
HOP-18
  IC50: 1.6 nM
[3]; 7.5 mg/kg iv qd × 1
  % TGD: 16.46%
  BW Nadir: −7.6% (3)
  Median TTE: 37.43 days
  T-C: 5.29 days
  activity (statistical significance): non-significant activity
  maximum group mean BW loss: 7.6%
  CR (complete regression): 0
  NTR (non-treatment-related death): 0
  PR (partial regression): 0
  TFS (tumor-free survivor): 0
  TR (treatment-related death): 0
[3]; 15 mg/kg iv qd × 1
  % TGD: 89.79%
  BW Nadir: −6.6% (4)
  MTV (n), Day 60: 0.00 (4) mm^3
  Median TTE: 61 days
  T-C: 28.86 days
  maximum group mean BW loss: 6.6%
  CR (complete regression): 4
  NTR (non-treatment-related death): 0
  PR (partial regression): 0
  TFS (tumor-free survivor): 4
  TR (treatment-related death): 0
[3]; 30 mg/kg iv qd × 1
  % TGD: 89.79%
  BW Nadir: −15.5% (5)
  MTV (n), Day 60: 0.00 (5) mm^3
  Median TTE: 61 days
  T-C: 28.86 days
  maximum group mean BW loss: 15.5%
  CR (complete regression): 5
  NTR (non-treatment-related death): 0
  PR (partial regression): 0
  TFS (tumor-free survivor): 5
  TR (treatment-related death): 0
[3]
  minimal effective dose: 15 mg/kg

## CCC(=O)O[C@H]1C(=O)[C@@]2(C)C([C@H](OC(=O)c3ccccc3)[C@]3(O)C[C@H](OC(=O)[C@H](O)[C@@H](NC(=O)OC4CCC4)c4cccs4)C(C)=C1C3(C)C)[C@]1(OC(C)=O)CO[C@@H]1C[C@@H]2O (stereo partly drawn) [Compound 19244]
[4]; 30 mg/kg i.v. q4d×4
  MTV: 0
  TGD: 172%
[4]; 30 mg/kg i.v. q4d×4, six mice
  55-day survivors: five
[4]; 30 mg/kg iv Q4d × 4
  Max. % BW Loss; Day: −17.3%; Day 17
[4]; 30 mg/kg iv Q4d × 4, n=6
  # Death NTR: 0
OVCAR5
  IC50: 0.6 nM
[1]
  BW Nadir: 10.4% (18)
  MTV(n), Day 56: 0.00 (6) mm^3
  CR (complete regression): 6
  NTR NTRa/u: 0
  NTR NTRm: 0
  PR (partial regression): 0
  TFS (tumor-free survivor): 6
  TR (treatment-related death): 0
  % TGD: 210.08%
  Median TTE: 56 days
  T-C: 37.94 days
[2]; 5 mg/kg/inj
  tolerability of repeated IV treatments: well tolerated
[2]; 5 mg/kg/inj IV
  mean doubling time (DT) of tumors: 19.3 ± 6.5 days
  time to reach volume (T to V) of 1,000 mm^3: 46.0 ± 11.6 days
  optimal T/C % value: 27.7%
[2]; 5 mg/kg/inj IV, after the first injection
  MBWC D21-D26: −15.9±5.6%
[2]; 7 mg/kg/inj
  tolerability of repeated IV treatments: not tolerated
[2]; 7 mg/kg/inj IV
  rats out of six alive at the end of the study: two
[2]; [6]
  MBWC D21-D26: −20.1±5.7%
[2]
  antitumor activity: marked antitumor activity
HCT116
  IC50: 0.4 nM
A549
  IC50: 0.5 nM
[5]
  LTTFS: 1
  regression responses: six
HOP-18
  IC50: 1.5 nM
